Laboratory results reported in patent US20240368134A1, “AROMATIC COMPOUND, PHARMACEUTICAL COMPOSITION, AND APPLICATION THEREOF” (SHANGHAI KYGENT PHARMACEUTICAL CO., LTD, priority 2021, published 2024).
Where two headings read alike, the source gives them in different places.

Tests used:
MSTO-211H cells = test: Tumor cell proliferation inhibition experiment (Cell Titer Glo), MSTO-211H; format: cell-based; conditions: MSTO-211H lung cancer cells, three days incubation
Experimental: (§1) Cell Titer Glo luminescent cell viability assay kit was used to quantify the ATP content in cells, so as to quantify the number of viable cells. […] On the second day, the compound was added to the 96-well plate after a three-fold serial dilution to eight concentrations, and incubated at 37° C. for three days in the 5% carbon dioxide incubator. The culture medium was treated with the addition of Cell Titer Glo luminescent cell viability assay kit (Promega G7570) reagent, incubated for 10 minutes, and then placed in Envision (Pelkin Elmer) to read the luminescence signal. DMSO was used instead of the compound as a control to calculate the inhibition rate (inhibition rate %=(1−compound signal/DMSO signal)*100), and then standard four parameter curve fitting was used to calculate the inhibitory activity IC50.

NCI-H2052 cells = test: Tumor cell proliferation inhibition experiment (Cell Titer Glo), NCI-H2052; format: cell-based; conditions: NCI-H2052 lung cancer cells, three days incubation
Experimental: as §1

[1] = Pharmacokinetic evaluation experiment in mice (IV and PO); format: in vivo; conditions: male ICR mice; for Vd: read-out: Vss
Experimental: 120 healthy adult male ICR mice were selected and divided into 20 groups according to the principle of similar body weight, with 6 mice in each group of IV (10 groups) and 6 mice in each group of PO (10 groups). An appropriate amount of sample was weighed, sequentially added with an appropriate amount of DMA, Solutol, and Saline according to the volume ratio of 10:10:80, and stirred and sonicated to achieve a clarification of 1 mg/mL. After overnight fasting, mice in the IV group were intravenously administered with a volume of 5 mL/kg and a dose of 5 mg/kg, respectively; and mice in the PO group were intragastrically administered with a volume of 30 mL/kg and a dose of 30 mg/kg, respectively. Interleaved sampling was performed on every 6 mice after administration of the test compound. In the IV group, approximately 30 μL of blood was collected at 0.0833, 0.25, 0.5, 1, 2, 4, 6, 8, and 24 hours, and placed in a commercial anticoagulant tube pre-filled with EDTA-K2. In the PO group, approximately 30 μL of blood was collected at 0.25, 0.5, 1, 2, 4, 6, 8, and 24 hours, and placed in the commercial anticoagulant tube pre-filled with EDTA-K2. The tubes were centrifuged for 15 minutes to separate the plasma, and the plasma was stored at −80° C. Animals were allowed to eat 2 hours after administration. The content of the test compound in the plasma of mice after intravenous and intragastric administration was determined by LC/MS/MS method. The linear range of the method was 1.00 to 1000 ng/mL: plasma samples were analyzed after protein precipitation.

[2] = mouse, plasma, PO 30 mg/kg vs IV 5 mg/kg
[3] = mouse, IV 5 mg/kg, plasma, read-out: AUC
[4] = mouse, PO 30 mg/kg, plasma, read-out: AUC
[5] = mouse, PO 30 mg/kg, plasma, read-out: Cmax
[6] = mouse, PO 30 mg/kg, plasma, read-out: Tmax

| Structure (SMILES) | IC50 (MSTO-211H cells; Homo sapiens, 72 h) [nM] | IC50 (NCI-H2052 cells; Homo sapiens, 72 h) [nM] | bioavailability [1, 2] [%] | clearance ([1]; mouse, IV 5 mg/kg, plasma) [mL/min/kg] | half-life ([1]; mouse, IV 5 mg/kg, plasma) [min] | AUC [1, 3] [ng·h/mL] | Vd ([1]; mouse, IV 5 mg/kg, plasma) [L/kg] | AUC [1, 4] [ng·h/mL] | Cmax [1, 5] [ng/mL] | Tmax [1, 6] [h] | other results |
| --- | --- | --- | --- | --- | --- | --- | --- | --- | --- | --- | --- |
| CNC(=O)c1cc2c(c(F)c1-c1c(Cl)c(F)cc3c1C[C@](c1ccccc1)([C@@H]1CCCN1)O3)C1CC1O2 (some centres unmarked) [Compound 2a] | 414 | 928 | 95.4 | 86.3 | 229 | 750 | 28 | 4300 | 474 | 4 | – |
| CNC(=O)c1cnc(OCCO)c(F)c1-c1c(Cl)c(F)cc2c1C[C@](c1ccccc1)([C@@H]1CC3(CC3)CN1)O2 [Compound 10a] | 236 | 328 | 17.3 | 50.4 | 66.6 | 1650 | 2.42 | 1710 | 603 | 0.5 | – |
| CNC(=O)c1cc2c(c(F)c1-c1c(Cl)c(F)cc3c1C[C@@](CN[C@H]1CC[C@H](O)CC1)(c1ccccc1)O3)C1CC1O2 (some centres unmarked) [Compound 13a] | 200 | 210 | 108 | 41.4 | 134 | 2010 | 8.5 | 13100 | 2050 | 2 | – |
| CNC(=O)c1cc2c(c(F)c1-c1c(Cl)c(F)cc3c1C[C@@](CN[C@H]1CC[C@](C)(O)CC1)(c1ccccc1)O3)C1CC1O2 (some centres unmarked) [Compound 14a] | – | – | – | – | – | – | – | – | – | – | IC50 (MSTO-211H cells): 320 nM; IC50 (NCI-H2052 cells): 360 nM; AUC ([1]; IV 5 mg/kg, plasma): 3462 ng·h/mL; CL ([1]; IV 5 mg/kg, plasma): 24.1 mL/min/kg; T1/2 ([1]; IV 5 mg/kg, plasma): 2.35 h; Vss ([1]; IV 5 mg/kg, plasma): 4.34 L/kg; F % ([1]; PO 30 mg/kg vs IV 5 mg/kg): 102.1%; AUC ([1]; PO 30 mg/kg, plasma): 21209 ng·h/mL; Cmax ([1]; PO 30 mg/kg, plasma): 2697 ng/mL; Tmax ([1]; PO 30 mg/kg, plasma): 2.00 h |
| CNC(=O)c1cc2c(c(F)c1-c1c(Cl)c(F)cc3c1C[C@](c1ccccc1)([C@@H]1CC4(CC4)CN1)O3)C1CC1O2 (some centres unmarked) [Compound 16a] | 1730 | 1850 | 40.3 | 56.4 | 137 | 1480 | 11.4 | 3570 | 434 | 2 | – |
| CNC(=O)c1cc2c(c(F)c1-c1c(Cl)c(F)cc3c1C[C@](c1ccccc1)([C@@H]1CCCN1)O3)OC1CC21 (some centres unmarked) [Compound 17a] | 80 | 90 | 52.2 | 75.8 | 107 | 1100 | 11.7 | 3450 | 424 | 1.33 | – |
| CNC(=O)c1cc2c(c(F)c1-c1c(Cl)c(F)cc3c1C[C@](c1ccccc1)([C@@H]1CC4(CC4)CN1)O3)OC1CC21 (some centres unmarked) [Compound 18a] | 690 | 730 | 27.9 | 107 | 95.4 | 804 | 12.2 | 1680 | 199 | 0.8 | – |
| C[C@H]1c2c(cc(F)c(Cl)c2-c2c(C(N)=O)cc3c(c2F)C2CC2O3)O[C@]1(CN[C@H]1CC[C@](C)(O)CC1)c1ccccc1 (some centres unmarked) [Compound 27a] | 100 | 210 | – | – | – | – | – | – | – | – | – |
| C[C@H]1c2c(cc(F)c(Cl)c2-c2c(C(N)=O)cc3c(c2F)OC2CC32)O[C@]1(CN[C@H]1CC[C@](C)(O)CC1)c1ccccc1 (some centres unmarked) [Compound 28a] | 40 | 50 | – | – | – | – | – | – | – | – | – |
| CNC(=O)c1cc2c(c(F)c1-c1c(Cl)c(F)cc3c1C[C@@](CN[C@H]1CC[C@](C)(O)CC1)(c1ccccc1)O3)CCC2 [Compound 30a] | 300 | 550 | – | – | – | – | – | – | – | – | – |
| CNC(=O)c1cc2c(c(F)c1-c1c(Cl)c(F)cc3c1C[C@](c1ccccc1)([C@@H]1CCCN1)O3)CCC2 [Compound 31a] | 200 | 250 | 44.6 | 17.9 | 211 | 2790 | 4.44 | 7470 | 928 | 1 | – |
| CNC(=O)c1cc2c(c(F)c1-c1c(Cl)c(F)cc3c1C[C@](c1ccccc1)([C@@H]1CCCN1)O3)CCC2(F)F [Compound 36a] | 450 | 650 | – | – | – | – | – | – | – | – | – |
| CNC(=O)c1cc2c(c(F)c1-c1c(Cl)c(F)cc3c1C[C@](c1ccccc1)([C@@H]1CCCN1)O3)CCC2C#N (some centres unmarked) [Compound 38a] | 990 | 750 | – | – | – | – | – | – | – | – | – |
| CNC(=O)c1cc2c(c(F)c1-c1c(Cl)c(F)cc3c1C[C@](c1ccccc1)([C@@H]1CCCN1)O3)CCC2=O [Compound 40a] | 490 | 600 | – | – | – | – | – | – | – | – | – |
| CNC(=O)c1cc2c(c(F)c1-c1c(Cl)c(F)cc3c1C[C@](c1ccccc1)([C@@H]1CCCN1)O3)CCC2O (some centres unmarked) [Compound 41a] | 190 | 420 | 61.8 | 36.5 | 131 | 2280 | 5.32 | 8460 | 1270 | 2 | – |
| CNC(=O)c1cc2c(c(F)c1-c1c(Cl)c(F)cc3c1C[C@@](CN[C@H]1CC[C@](C)(O)CC1)(c1ccccc1)O3)CCC2O (some centres unmarked) [Compound 42a] | 730 | 900 | – | – | – | – | – | – | – | – | – |
| CNC(=O)c1cc2c(c(F)c1-c1c(Cl)c(F)cc3c1C[C@](c1ccccc1)([C@@H]1CCCN1)O3)CCC2F (some centres unmarked) [Compound 43a] | 440 | 500 | – | – | – | – | – | – | – | – | – |
| CNC(=O)c1cc2c(c(F)c1-c1c(Cl)c(F)cc3c1C[C@](c1ccccc1)([C@@H]1CCCN1)O3)CCC2S(C)(=O)=O (some centres unmarked) [Compound 46a] | 640 | 930 | – | – | – | – | – | – | – | – | – |
| CNC(=O)c1cc2c(c(F)c1-c1c(Cl)c(F)cc3c1C[C@](c1ccccc1)([C@@H]1CCCN1)O3)CC(O)C2 (some centres unmarked) [Compound 49a] | 150 | 240 | – | – | – | – | – | – | – | – | – |
| NC(=O)c1cc2c(c(F)c1-c1c(Cl)c(F)cc3c1C[C@](c1ccccc1)([C@@H]1CCCN1)O3)CCC2 [Compound 52a] | 170 | 200 | – | – | – | – | – | – | – | – | – |
| NC(=O)c1cc2c(c(F)c1-c1c(Cl)c(F)cc3c1C[C@](c1ccccc1)([C@@H]1CCCN1)O3)CCC2O (some centres unmarked) [Compound 53a] | 150 | 160 | 14.4 | 44.2 | 251 | 1880 | 6.94 | 1620 | 301 | 0.5 | – |
| CNC(=O)c1cc2c(c(F)c1-c1c(Cl)c(F)cc3c1C[C@](c1ccccc1)([C@@H]1CCCN1)O3)C[C@H](O)[C@H]2C [Compound 57a1] | – | – | – | – | – | – | – | – | – | – | IC50 (MSTO-211H cells): 390 nM; IC50 (NCI-H2052 cells): 450 nM |
| CNC(=O)c1cc2c(c(F)c1-c1c(Cl)c(F)cc3c1C[C@](c1ccccc1)([C@@H]1CCCN1)O3)CC(=O)C2 [Compound 65a] | > 10000 | > 10000 | – | – | – | – | – | – | – | – | – |
| CNC(=O)c1cc2c(c(F)c1-c1c(Cl)c(F)cc3c1C[C@@](CN[C@H]1CC[C@](C)(O)CC1)(c1ccccc1)O3)CC(O)C2 (some centres unmarked) [Compound 80a] | 490 | 580 | – | – | – | – | – | – | – | – | – |
